# Measurements published in US20240174680A1, “CDK2 INHIBITORS AND METHODS OF USING THE SAME” (Cedilla Therapeutics, Inc., priority 2021, published 2024).
# Biological target: CDK2/Cyclin E1 (Homo sapiens, UniProt P24941)
# Assay: CDK2/Cyclin E1 Caliper LabChip EZ Reader mobility shift assay
# Assay type: biochemical
# Design: purchased Eurofins 14-475
# Conditions: read-out: Caliper Assay (CDK2/CCNE1): IC50
# Outline: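 Mobility-shift kinase assay: compound titrations preincubated 30 min with enzyme and ATP, reaction started with 5-FAM-QSPKKG-CONH2 peptide. Final 2.5 nM CDK2/Cyclin E1, 100 μM ATP, 1.5 μM peptide, HEPES pH 7.5; stopped with EDTA after 100 min. IC50 from four-parameter fit of normalized conversion ratio.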
row,IC50 [nM],SMILES
1,≤ 10,CNC(=O)[C@@H](NC(=O)[C@@H]1CN(C(=O)c2cnn(Cc3ccccc3)c2)CC12CN(C(=O)[C@H]1CC1(C)C)C2)[C@@H](C)OCC1CCC(F)(F)CC1 [I-202]
2,≤ 10,C[C@@H](OCC1CCC(F)(F)CC1)[C@H](NC(=O)C1CN(C(=O)c2cncs2)CC12CN(C(=O)[C@H]1CC1(C)C)C2)C(=O)N1CCC(OC(F)(F)F)CC1 (some centres unmarked) [I-394]
3,1000 to 10000,CC1(C)C[C@@H]1C(=O)N1CC2(CN(C(=O)c3cnn(Cc4ccccc4)c3)C[C@H]2C(=O)N[C@@H]2CCCN(C(=O)C3CCCCC3)C2)C1 [I-215]
4,1000 to 10000,CNC(=O)C(NC(=O)[C@@H]1CN(C(=O)c2cnn(Cc3ccccc3)c2)CC12CN(C(=O)[C@H]1CC1(C)C)C2)c1ccc(C)nn1 (some centres unmarked) [I-421]
5,100 to 1000,C[C@@H](OCc1ccccc1)[C@H](NC(=O)C1CN(C(=O)c2cnn(Cc3ccccc3)c2)CC12CN(C(=O)[C@H]1CC1(C)C)C2)C(=O)NCCC(=O)O (some centres unmarked) [I-29]
6,≤ 10,C[C@@H](OCC1CCCCC1)[C@H](NC(=O)[C@@H]1CN(C(=O)c2cnn(Cc3ccccc3)c2)CC12CN(C(=O)[C@H]1CC1(C)C)C2)C(=O)N1CCC(c2ccncc2)CC1 [I-300]
7,≤ 10,C[C@@H](OCC1CCCCC1)[C@H](NC(=O)C1CN(C(=O)c2cncs2)CC12CN(C(=O)[C@H]1CC1(C)C)C2)C(=O)N1CCC[C@@H](CO)C1 (some centres unmarked) [I-197]
8,10 to 100,"CNC(=O)[C@@H](NC(=O)[C@@H]1CN(C(=O)c2cn[nH]c2)CC12CN(C(=O)[C@H]1CC1(C)C)C2)[C@@H](C)OCC1CCCCC1 [I-66A, (S)—N-((2S,3R)-3-(cyclohexylmethoxy)-1-(methylamino)-1-oxobutan-2-yl)-2-((S)-2,2-dimethylcyclopropane-1-carbonyl)-6-(1H-pyrazole-4-carbonyl)-2,6-diazaspiro[3.4]octane-8-carboxamide]"
9,> 10000,CNC(=O)[C@@H](NC(=O)[C@@H]1CN(Cc2ccccn2)CC12CN(C(=O)[C@H]1CC1(C)C)C2)[C@@H](C)OCc1ccccc1 [I-40A]
10,1000 to 10000,C[C@@H](OCC1CCCCC1)[C@H](NC(=O)[C@H]1CN(C(=O)c2cnn(Cc3ccccc3)c2)CC12CN(C(=O)[C@H]1CC1(C)C)C2)C(=O)N1CC(C)(C)C1 [I-153B]
11,> 10000,CC1(C)C[C@@H]1C(=O)N1CC2(CN(C(=O)c3cnn(Cc4ccccc4)c3)C[C@H]2C(=O)NCc2ccc(O)nn2)C1 [I-400]
12,> 10000,CNC(=O)[C@@H](NC(=O)[C@H]1CN(C(=O)c2cnc(C(F)(F)F)s2)CC12CN(C(=O)[C@H]1CC1(C)C)C2)[C@@H](C)OCC1CCCCC1 [I-161B]
13,≤ 10,CCOC(=O)C(C)(C)CNC(=O)[C@@H](NC(=O)[C@@H]1CN(C(=O)c2cnn(Cc3ccccc3)c2)CC12CN(C(=O)[C@H]1CC1(C)C)C2)[C@@H](C)OCC1CCCCC1 [I-473]
14,> 10000,COC(=O)[C@@H](CO)NC(=O)[C@@H]1CN(C(=O)c2cnn(Cc3ccccc3)c2)CC12CN(C(=O)[C@H]1CC1(C)C)C2 [I-187A]
15,10 to 100,C[C@@H](OCc1ccccc1)[C@H](NC(=O)C1CN(C(=O)c2cnn(Cc3ccccc3)c2)CC12CN(C(=O)[C@H]1CC1(C)C)C2)C(=O)N1CCOCC1 (some centres unmarked) [I-86]
16,> 10000,CNC(=O)[C@@H](NC(=O)[C@@H]1CN(C(=O)c2scnc2C(F)(F)F)CC12CN(C(=O)[C@H]1CC1(C)C)C2)[C@@H](C)OCC1CCCCC1 [I-163A]
17,≤ 10,COC[C@H]1CCCN(C(=O)[C@@H](NC(=O)[C@@H]2CN(C(=O)c3cncs3)CC23CN(C(=O)[C@H]2CC2(C)C)C3)[C@@H](C)OC[C@H]2CC[C@H](OC(F)(F)F)CC2)C1 [I-435]
18,10 to 100,CNC(=O)[C@@H](NC(=O)[C@@H]1CN(C(=O)c2cnn(Cc3ccc(F)cc3)c2)CC12CN(C(=O)[C@H]1CC1(C)C)C2)[C@@H](C)OCc1ccc(F)cc1 [I-136A]
19,> 10000,C[C@H](NC(=O)[C@H]1CN(C(=O)c2cnn(Cc3ccccc3)c2)CC12CN(C(=O)[C@H]1CC1(C)C)C2)c1cccc(F)c1 [I-127B]
20,≤ 10,C[C@@H](OCc1ccccc1)[C@H](NC(=O)[C@@H]1CN(C(=O)c2cnn(Cc3ccccc3)c2)CC12CN(C(=O)[C@H]1CC1(C)C)C2)C(=O)N1CCC(F)(F)CC1 [I-280]
21,1000 to 10000,CC1(C)C[C@@H]1C(=O)N1CC2(CN(C(=O)c3cnn(Cc4ccccc4)c3)C[C@H]2C(=O)Nc2cccc(Cc3ccccc3)c2)C1 [I-75A]
22,≤ 10,C[C@@H](OCC1CCCCC1)[C@H](NC(=O)[C@@H]1CN(C(=O)c2cnn(Cc3ccccc3)c2)CC12CN(C(=O)[C@H]1CC1(C)C)C2)C(=O)N1CCC(CN)CC1 [I-219]
23,10 to 100,C[C@@H](OCC1CCCCC1)[C@@H](COC(F)(F)F)NC(=O)[C@@H]1CN(C(=O)c2cnn(Cc3ccccc3)c2)CC12CN(C(=O)[C@H]1CC1(C)C)C2 [I-309]
24,> 10000,CC(C)O[C@H]1C[C@H](NC(=O)[C@@H]2CN(C(=O)c3cnn(Cc4ccccc4)c3)CC23CN(C(=O)[C@H]2CC2(C)C)C3)C1 [I-233]

row,IC50 [nM],SMILES
1,10 to 100,CNC(=O)[C@@H](NC(=O)[C@@H]1CN(C(=O)c2cncs2)CC12CN(C(=O)[C@H]1CC1(C)C)C2)[C@@H](C)OC(C)C1CCCCC1 (some centres unmarked) [I-279]
2,> 10000,"CNC(=O)[C@@H](NC(=O)[C@@H]1CN(C(=O)Nc2cnn(Cc3ccccc3)c2)CC12CN(C(=O)[C@H]1CC1(C)C)C2)[C@@H](C)OCc1ccccc1 [I-48A, (S)—N6-(1-benzyl-1H-pyrazol-4-yl)-N8-((2S,3R)-3-(benzyloxy)-1-(methylamino)-1-oxobutan-2-yl)-2-((S)-2,2-dimethylcyclopropane-1-carbonyl)-2,6-diazaspiro[3.4]octane-6,8-dicarboxamide]"
3,> 10000,CNC(=O)[C@@H](NC(=O)[C@@H]1CN(C(=O)c2c[nH]c3ccccc23)CC12CN(C(=O)[C@H]1CC1(C)C)C2)[C@@H](C)OCc1ccccc1 [I-72A]
4,100 to 1000,CNC(=O)[C@@H](NC(=O)[C@@H]1CN(C(=O)c2cnn(Cc3ccccc3)c2)CC12CN(C(=O)[C@H]1CC1(C)C)C2)[C@@H](C)OCC1CCOCC1 [I-119A]
5,10 to 100,CNC(=O)[C@@H](NC(=O)[C@@H]1CN(C(=O)c2cncs2)CC12CN(C(=O)[C@H]1CC1(C)C)C2)[C@@H](C)OCC12CCC(CC1)OC2 [I-342]
6,1000 to 10000,CNC(=O)[C@@H](NC(=O)[C@H]1CN(C(=O)c2cnc(COC)s2)CC12CN(C(=O)[C@H]1CC1(C)C)C2)[C@@H](C)OCC1CCCCC1 [I-145B]
7,> 10000,CNC(=O)[C@@H](NC(=O)[C@@H]1CN(Cc2cn[nH]c2)CC12CN(C(=O)[C@H]1CC1(C)C)C2)[C@@H](C)OCc1ccccc1 [I-50A]
8,> 10000,CNC(=O)[C@@H](NC(=O)[C@H]1CN(C(=O)c2cnc(Cl)s2)CC12CN(C(=O)[C@H]1CC1(C)C)C2)[C@@H](C)OCC1CCCCC1 [I-189B]
9,≤ 10,COC(=O)[C@@H](NC(=O)[C@@H]1CN(C(=O)c2cnn(Cc3ccccc3)c2)CC12CN(C(=O)[C@H]1CC1(C)C)C2)[C@@H](C)OCC1CCCCC1 [I-475]
10,> 10000,CNC(=O)[C@@H](NC(=O)[C@H]1CN(C(=O)c2cnn(CC3CCN(C)CC3)c2)CC12CN(C(=O)[C@H]1CC1(C)C)C2)[C@@H](C)OCc1ccccc1 [I-23B]
11,1000 to 10000,CC1(C)C[C@@H]1C(=O)N1CC2(CN(C(=O)c3cnn(Cc4ccccc4)c3)CC2C(=O)Nc2ncc(-c3ccccc3)o2)C1 (some centres unmarked) [I-93]
12,> 10000,"CNC(=O)[C@@H](NC(=O)[C@@H]1CN(C(=O)c2cnn(Cc3ccccc3)c2)CC12CN(CC(=O)O)C2)[C@@H](C)OCC1CCCCC1 [I-294, 2-((S)-6-(1-benzyl-1H-pyrazole-4-carbonyl)-8-(((2S,3R)-3-(cyclohexylmethoxy)-1-(methylamino)-1-oxobutan-2-yl)carbamoyl)-2,6-diazaspiro[3.4]octan-2-yl)acetic acid]"
13,100 to 1000,CC1(C)C[C@@H]1C(=O)N1CC2(CN(C(=O)c3cnn(Cc4ccccc4)c3)C[C@H]2C(=O)N2CCN(CC3CCCCC3)CC2)C1 [I-237]
14,> 10000,"CNC(=O)[C@@H](NC(=O)[C@@H]1CN(C(=O)c2cnn(Cc3ccccc3)c2)CC12CN(C(=O)NC1CC1)C2)[C@@H](C)OCC1CCCCC1 [I-268, (S)-6-(1-benzyl-1H-pyrazole-4-carbonyl)-N8-((2S,3R)-3-(cyclohexylmethoxy)-1-(methylamino)-1-oxobutan-2-yl)-N2-cyclopropyl-2,6-diazaspiro[3.4]octane-2,8-dicarboxamide]"
15,100 to 1000,C[C@@H](OCC12CCC(CC1)OC2)[C@H](NC(=O)[C@@H]1CN(C(=O)c2cnco2)CC12CN(C(=O)[C@H]1CC1(C)C)C2)C(C)(C)O [I-450]
16,1000 to 10000,CNC(=O)[C@@H](NC(=O)[C@@H]1CN(C(=O)c2cnn(Cc3ccccc3)c2)CC12CN(C(=O)CC1CCC1)C2)[C@@H](C)OCc1ccccc1 [I-27A]
17,10 to 100,C[C@@H](OCC1CCCCC1)[C@@H](CO)NC(=O)[C@@H]1CN(C(=O)c2cnn(Cc3ccccc3)c2)CC12CN(C(=O)[C@H]1CC1(C)C)C2 [I-135A]
18,10 to 100,CNC(=O)[C@@H](NC(=O)[C@@H]1CN(C(=O)c2cncs2)CC12CN(C(=O)[C@H]1CC1(C)C)C2)[C@@H](C)OC1CC2CCC1CC2 (some centres unmarked) [I-464]
19,1000 to 10000,CC1(C)C[C@@H]1C(=O)N1CC2(CN(C(=O)c3cnn(Cc4ccccc4)c3)C[C@@H]2C(=O)N2CCC(Cc3ccccc3)CC2)C1 [I-58B]
20,≤ 10,C[C@@H](OCC1CCCCC1)[C@H](NC(=O)[C@@H]1CN(C(=O)c2cnn(Cc3ccccc3)c2)CC12CN(C(=O)[C@H]1CC1(C)C)C2)C(=O)NCC1(C(=O)O)CC1 [I-474]
21,1000 to 10000,COC[C@H]1CCCN(C(=O)CNC(=O)[C@@H]2CN(C(=O)c3cncs3)CC23CN(C(=O)[C@H]2CC2(C)C)C3)C1 [I-323]
22,100 to 1000,"CNC(=O)[C@@H](NC(=O)[C@@H]1CN(C(=O)c2cncs2)CC12CN(C(=O)[C@H]1CC1(C)C)C2)[C@@H](C)OCc1ccccc1 [I-24A, (S)—N-((2S,3R)-3-(benzyloxy)-1-(methylamino)-1-oxobutan-2-yl)-2-((S)-2,2-dimethylcyclopropane-1-carbonyl)-6-(thiazole-5-carbonyl)-2,6-diazaspiro[3.4]octane-8-carboxamide]"
23,> 10000,CC1(C)C[C@@H]1C(=O)N1CC2(CN(C(=O)c3cnn(Cc4ccccc4)c3)C[C@H]2C(=O)N2CCCC(Cc3ccccc3)C2)C1 (some centres unmarked) [I-91A]
